Measured values taken from article PMC9411606, “Control cell migration by engineering integrin ligand assembly” (Nature Communications, 2022).
Entries after “also recorded” stand apart in the source; their conditions may differ.

Legend:
[1] = test system: cells lacking integrin α3β1 expression; test: Cell adhesion assay, cells lacking integrin α3β1; format: cell-based, human; conditions: coated with 100 µM, 1 h at 37 °C, n = 30
Protocol: (§1) The 96-well microplates wells were coated with peptide assemblies (the concentration of FFFIKLLI was kept at 100 μM constantly) for 12 hr at 37 °C before blocked with the Blocking Buffer (2% BSA, 1 mM CaCI2 and 1 mM MnCI2 in PBS) for 1 hr at 37 °C. Cells were collected from culture dishes and suspended in the Blocking Buffer containing anti-laminin-5 (P3H9-2, MAB1947, Chemicon, 5 μg/ml), anti-fibronectin (IST-9, ab6328, Abcam, 20 μg/ml) or IgG isotype control (20 μg/ml, Abcam) before immediately seeded to the coated well (20,000 cells/well) and allowed to incubate at 37 °C for 1 h. The wells were washed for three times with the Blocking Buffer and the phase-contrast images were captured by IncucyteS3 (Essen Bioscience) with a 10× objective.

[2] = FTIR microscopy of peptide assemblies; format: physicochemical; conditions: freeze-dried on CaF2, aqueous assembly
From the text: To prepare FTIR samples, an aliquot of the peptide solution was dropped on a TS CaF2 window (5 mm diameter) (Edmund Optics, Japan) and freeze-dried using a lyophilizer (Freeze Dryer, Labconco). The CaF2 Window with assembled nanofilaments was mounted for FTIR microscopic analysis. FTIR microscopic analysis of a plain CaF2 Window served as the reference. An FTIR microscope (Nicolet iN10, Thermo Fisher Scientific) equipped with an MCT detector was used for collecting IR spectra. Spectra ranging from 4000 to 650 cm^−1 were obtained in transmission mode, aperture of 50 μm, with the resolution of 2 cm^−1. Each spectrum was derived from an average of 128 scans for each sample.

integrin α3β1 = test: MicroScale Thermophoresis integrin binding; design: species or system human; conditions: MST, n = 3
From the text: The interaction between integrins and peptide ligands in PBS was quantified by a Monolith® NT.115Pico (NanoTemper Technology, Germany) using MO. Control 1.6 software. Recombinant human integrin proteins, including alpha-3/ beta-1, alpha-5/beta-1, and alpha-6/ beta-1, were purchased from R&D Systems (USA). Recombinant integrin proteins were labeled by Monolith^TM Protein Labeling Kit RED-NHS (NanoTemper Technology) following the instruction provided by the manufacturer. The fluorescence-labeled integrin solution was mixed with peptides solution in 15 concentration gradients at a 1:1 ratio. The Monolith^TM NT.115 MST Premium Coated Capillaries (NanoTemper Technology) were applied to draw the mixed solution with the order of declining ligand concentration. Pretests were performed to ensure the protein concentration and fluorescent intensities in each tube were equal. Following that, quantitative binding affinity was measured three times.

HuH-7 cells = test: MTT assay, HuH-7 cell viability; format: cell-based, human; conditions: HuH-7, 10-200 µM, 24, 48, 72 hr
Protocol: Huh-7 cells were seeded in 96-well plates at a density of 5 × 10^3 cells/ well. The cells were allowed to adhere by incubating at 37 °C with 5% CO2 for 12 hr. 100 μL of Cultured medium containing 10% FBS and the desired concentration of peptide replaced to each well and the cells were then incubated with the peptide solution for another 24, 48, or 72 hr. After the desired time of incubation, 10 μL of MTT (12 mM, Invitrogen) solution at a concentration of 5 mg/mL was added to each well and incubated at 37 °C for another 4 hr. The reduction reaction was terminated by adding 100 μL of 10% of SDS solution (in Milli-Q) and incubated for 12 hr to dissolve the formazan crystals formed in the cells. A Nivo multimode plate reader (PerkinElmer) was used to measure the optical density at the 570 nm wavelength of each well. All experiments were conducted in triplicate, and the results were calculated as mean ± standard deviation and presented as cell viability.

[3] = test system: Rac1 in HuH-7 cells (RaichuEV-Rac1); test: Rac1 activity by FRET; format: cell-based, human
From the text: (§2) The mGFP-paxillin expression vector was a gift from A. Kusumi (Okinawa Institute of Science and Technology, Japan). pGFP-FAK and pEGFP-vinculin were gifts from Kenneth Yamada (RRID: Addgene_50513 and Addgene¬_50515)[39], EGFP-talin, mVenus-Integrin-Beta1 and mRuby-Lifeact-7 was a gift from Michael Davidson (RRID: Addgene_54560). pEGFPC1/Gg Vinculin 1-258 (akaVD1) was a gift from S. Craig (RRID: Addgene_46270)[40]. The Rac1 FRET Sensor, pCAGGS-RaichuEV-Rac1was generously provided by K. Aoki (National Institute for Basic Biology, Japan)[41] and the RhoA FRET sensor, DORA-RhoA was generously provided by Yi I. Wu (University of Connecticut Health Center, USA)[42]. The expression vectors for Rac1/Tiam1 activation system (Lyn11-linker-FRB, YFP-FKBP, YFP-FKBP-linker-Tiam1, and pTriEx-PA-Rac1) was generously provided by T. Inoue (Johns Hopkins University, USA)[43].

[4] = test system: RhoA in HuH-7 cells (DORA-RhoA); test: RhoA activity by FRET; format: cell-based, human
From the text: as §2

[5] = test system: cells expressing integrin α3β1; test: Cell adhesion assay, cells expressing integrin α3β1; format: cell-based, human; conditions: coated with 100 µM, 1 h at 37 °C, n = 30
Protocol: as §1

[6] = test system: integrin knockdown HuH-7 cells; test: Cell adhesion assay, integrin knockdown HuH-7; format: cell-based, human; conditions: coated with 100 µM FFFIKLLI, n = 30
Protocol: Integrin β1 shRNA plasmid (#sc-29375-SH), Integrin α3 shRNA plasmid (#sc-35684-SH), Integrin α6 shRNA plasmid (#sc-43129-SH), and control shRNA plasmid-A (#sc-108060) were purchased from Santa Cruz Biotechnology for knockdown of the target integrins. The knockdown efficiency was evaluated by western blotting.
as §1

## FFFIKLLI [assembling ligand: FFF coupled to the N-terminus of IKLLI; self-assembles into nanofilaments]
[1]
  adherence to FFFIKLLI-coated dishes: washed out
[2]
  hydrogen bonding by FTIR: NH-N
Integrin α3β1; PBS, integrin 2 nM, in words
  integrin-binding affinity: highest binding affinity
Integrin α3β1; integrin α3β1 vs α5β1 and α6β1, integrin 2 nM
  integrin selectivity: selectively targeted integrin α3β1
HuH-7 cells
  cytotoxicity: without inducing cytotoxicity
[3]; 12 hr, n = 50 cells, mean
  Rac1 activity, FRET/CFP: 1.262
[3]; HuH-7
  Rac1 activity: great inhibition; also recorded: global inhibition
[4]; 12 hr, n = 50 cells, mean
  RhoA activity, FRET/CFP: 1.263
[4]; HuH-7
  RhoA activity: great inhibition; also recorded: suppressed RhoA activity; also recorded: global inhibition
[5]
  adherence to FFFIKLLI-coated dishes: remained adhered to the substrate
[6]
  adherence after knockdown of α3 or β1 subunit: significantly reduced their adherence
